Measured values as given in ChEMBL document CHEMBL3593229, “Identification of a potent 5-phenyl-thiazol-2-ylamine-based inhibitor of FLT3 with activity against drug resistance-conferring point mutations” (Eur J Med Chem, 2015).
Calls of active or inactive are those of the source. The calls are words filed in the database; no cut-off is given here.

Key:
[1] = molecular target: Serine/threonine-protein kinase Sgk3 (Homo sapiens) (UniProt Q96BR1); assay: Inhibition of human SGKL at 0.1 uM relative to control
[2] = system: Receptor-type tyrosine-protein kinase FLT3 (Homo sapiens), P36888 [D835F]
[3] = molecular target: Serine/threonine-protein kinase Nek2 (Homo sapiens) (UniProt P51955); assay: Inhibition of human NEK2 at 0.1 uM relative to control
[4] = AUC (0 to infinity) in Sprague-Dawley rat at 10 mg/kg, po; type: ADME, organism-based; design: dose 10 mg/kg, time infinity, route oral; details: in vivo
[5] = system: Receptor-type tyrosine-protein kinase FLT3 (Homo sapiens), P36888 [D835Y]; assay: Inhibition of human FLT3 D835Y mutant at 0.1 uM relative to control
[6] = system: RAF proto-oncogene serine/threonine-protein kinase (Homo sapiens), P04049 [Y340D,Y341D]; assay: Inhibition of human RAF1 Y340D/Y341D double mutant at 0.1 uM relative to control
[7] = molecular target: Ribosomal protein S6 kinase alpha-2 (Homo sapiens) (UniProt Q15349); assay: Inhibition of human RSK3 at 0.1 uM relative to control
[8] = molecular target: Serine/threonine-protein kinase MRCK alpha (Homo sapiens) (UniProt Q5VT25); assay: Inhibition of human MRCKA at 0.1 uM relative to control
[9] = molecular target: Non-receptor tyrosine-protein kinase TYK2 (Homo sapiens) (UniProt P29597); assay: Inhibition of human TYK2 at 0.1 uM relative to control
[10] = molecular target: Dual specificity protein kinase CLK2 (Homo sapiens) (UniProt P49760); assay: Inhibition of human CLK2 at 0.1 uM relative to control
Chain of Dual specificity protein kinase CLK2 (Homo sapiens) (P49760 whole entry, looked up): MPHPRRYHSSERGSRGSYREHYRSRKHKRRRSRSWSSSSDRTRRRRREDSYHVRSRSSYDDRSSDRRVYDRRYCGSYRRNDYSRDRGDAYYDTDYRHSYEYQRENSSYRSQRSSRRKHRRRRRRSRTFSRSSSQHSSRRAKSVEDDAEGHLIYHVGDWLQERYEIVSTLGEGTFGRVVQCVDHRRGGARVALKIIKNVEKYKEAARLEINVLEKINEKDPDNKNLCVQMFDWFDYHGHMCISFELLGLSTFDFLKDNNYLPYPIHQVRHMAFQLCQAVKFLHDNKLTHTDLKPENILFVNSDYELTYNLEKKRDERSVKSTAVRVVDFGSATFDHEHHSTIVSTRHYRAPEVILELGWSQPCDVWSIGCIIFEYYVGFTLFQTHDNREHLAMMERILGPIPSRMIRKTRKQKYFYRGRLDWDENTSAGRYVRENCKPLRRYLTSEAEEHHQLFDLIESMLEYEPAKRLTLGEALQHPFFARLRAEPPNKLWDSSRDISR

[11] = Cmax in ICR mouse at 10 mg/kg, po; type: ADME, organism-based; design: dose 10 mg/kg, route oral; details: in vivo
[12] = molecular target: Ribosomal protein S6 kinase beta-1 (Homo sapiens) (UniProt P23443); assay: Inhibition of human RPS6KB1 at 0.1 uM relative to control
Chain of Ribosomal protein S6 kinase beta-1 (Homo sapiens) (P23443 whole entry, looked up): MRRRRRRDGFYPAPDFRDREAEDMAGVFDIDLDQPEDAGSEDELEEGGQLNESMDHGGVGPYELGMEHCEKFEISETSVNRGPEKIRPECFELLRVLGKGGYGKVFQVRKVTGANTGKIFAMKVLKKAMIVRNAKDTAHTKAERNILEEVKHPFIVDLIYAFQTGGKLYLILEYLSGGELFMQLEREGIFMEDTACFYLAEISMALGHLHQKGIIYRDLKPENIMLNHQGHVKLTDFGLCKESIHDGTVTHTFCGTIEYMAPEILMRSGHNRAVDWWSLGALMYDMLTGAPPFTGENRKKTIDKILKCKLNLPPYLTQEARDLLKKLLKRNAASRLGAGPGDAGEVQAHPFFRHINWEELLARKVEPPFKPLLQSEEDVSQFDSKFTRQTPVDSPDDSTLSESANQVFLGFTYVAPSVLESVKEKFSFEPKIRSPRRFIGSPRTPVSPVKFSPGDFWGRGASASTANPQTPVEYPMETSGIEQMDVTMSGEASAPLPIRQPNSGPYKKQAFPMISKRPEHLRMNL

[13] = Volume of distribution at steady state in Sprague-Dawley rat at 2 mg/kg, iv; type: ADME, organism-based; details: in vivo, read-out: Vdss
[14] = molecular target: Tyrosine-protein kinase BTK (Homo sapiens) (UniProt Q06187); assay: Inhibition of human BTK at 0.1 uM relative to control
Chain of Tyrosine-protein kinase BTK (Homo sapiens) (Q06187 whole entry): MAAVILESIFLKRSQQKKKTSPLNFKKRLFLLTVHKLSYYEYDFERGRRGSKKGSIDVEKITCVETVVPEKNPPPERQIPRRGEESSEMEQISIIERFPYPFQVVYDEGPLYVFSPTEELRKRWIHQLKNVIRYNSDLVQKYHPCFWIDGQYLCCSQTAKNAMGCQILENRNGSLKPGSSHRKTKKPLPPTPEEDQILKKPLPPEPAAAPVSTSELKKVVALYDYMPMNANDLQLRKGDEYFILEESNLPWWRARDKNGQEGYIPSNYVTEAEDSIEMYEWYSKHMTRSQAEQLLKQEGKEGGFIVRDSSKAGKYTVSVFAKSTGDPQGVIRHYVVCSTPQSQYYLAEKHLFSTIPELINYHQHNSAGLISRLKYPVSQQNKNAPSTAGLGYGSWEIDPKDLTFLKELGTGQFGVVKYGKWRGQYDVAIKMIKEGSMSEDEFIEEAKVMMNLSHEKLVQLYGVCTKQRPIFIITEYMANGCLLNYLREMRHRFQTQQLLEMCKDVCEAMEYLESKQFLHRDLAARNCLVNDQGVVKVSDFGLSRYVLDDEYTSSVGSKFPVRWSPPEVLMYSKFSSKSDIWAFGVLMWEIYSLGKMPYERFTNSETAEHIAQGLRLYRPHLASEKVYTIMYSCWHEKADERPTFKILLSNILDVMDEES

[15] = molecular target: Vascular endothelial growth factor receptor 3 (Homo sapiens) (UniProt P35916); assay: Inhibition of human FLT4 at 0.1 uM relative to control
[16] = system: MV4-11; assay: Antitumor activity against human MV4-11 cells xenografted in nude mouse assessed as tumor growth inhibition at 10 mg/kg, po qd administered on day 1 to 5 measured during compound dosing; type: functional, organism-based
[17] = molecular target: Hepatocyte growth factor receptor (Homo sapiens) (UniProt P08581); assay: Inhibition of human MET at 0.1 uM relative to control
[18] = molecular target: Glycogen synthase kinase-3 beta (Homo sapiens) (UniProt P49841); assay: Inhibition of human GSK3B at 0.1 uM relative to control
[19] = molecular target: Tyrosine-protein kinase Blk (Homo sapiens) (UniProt P51451); assay: Inhibition of human BLK at 0.1 uM relative to control
[20] = molecular target: Serine/threonine-protein kinase mTOR (Homo sapiens) (UniProt P42345); assay: Inhibition of human mTOR at 0.1 uM relative to control
[21] = system: Platelet-derived growth factor receptor alpha (Homo sapiens), P16234 [T674I]; assay: Inhibition of human PDGFRA T674I mutant at 0.1 uM relative to control
[22] = molecular target: Aurora kinase C (Homo sapiens) (UniProt Q9UQB9); assay: Inhibition of human AURKC at 0.1 uM relative to control
Chain of Aurora kinase C (Homo sapiens) (Q9UQB9 whole entry): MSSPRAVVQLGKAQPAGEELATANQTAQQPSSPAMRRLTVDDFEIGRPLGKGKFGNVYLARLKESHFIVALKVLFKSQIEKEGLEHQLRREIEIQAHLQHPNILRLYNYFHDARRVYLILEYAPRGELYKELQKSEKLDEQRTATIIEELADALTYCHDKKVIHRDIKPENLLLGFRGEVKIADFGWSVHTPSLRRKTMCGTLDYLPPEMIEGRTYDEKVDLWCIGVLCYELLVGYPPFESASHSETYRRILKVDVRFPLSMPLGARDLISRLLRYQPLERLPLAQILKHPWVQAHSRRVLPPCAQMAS

[23] = molecular target: Mitogen-activated protein kinase 8 (Homo sapiens) (UniProt P45983); assay: Inhibition of human MAPK8 at 0.1 uM relative to control
[24] = Volume of distribution at steady state in ICR mouse at 2 mg/kg, iv; type: ADME, organism-based; details: in vivo, read-out: Vdss
[25] = molecular target: Serine/threonine-protein kinase Sgk1 (Homo sapiens) (UniProt O00141); assay: Inhibition of human SGK1 at 0.1 uM relative to control
Chain of Serine/threonine-protein kinase Sgk1 (Homo sapiens) (O00141 whole entry): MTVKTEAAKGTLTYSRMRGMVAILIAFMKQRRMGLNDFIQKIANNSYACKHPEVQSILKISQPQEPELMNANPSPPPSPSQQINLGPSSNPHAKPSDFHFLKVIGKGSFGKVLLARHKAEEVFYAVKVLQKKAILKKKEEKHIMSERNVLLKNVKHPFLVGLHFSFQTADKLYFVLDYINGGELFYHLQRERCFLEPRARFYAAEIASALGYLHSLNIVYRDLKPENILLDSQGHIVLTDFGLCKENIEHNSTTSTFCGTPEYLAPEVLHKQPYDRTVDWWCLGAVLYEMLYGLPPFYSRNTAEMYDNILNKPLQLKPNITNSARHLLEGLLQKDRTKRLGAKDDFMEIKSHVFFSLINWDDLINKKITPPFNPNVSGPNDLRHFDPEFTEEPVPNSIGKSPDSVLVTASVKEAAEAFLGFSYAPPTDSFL

[26] = molecular target: Platelet-derived growth factor receptor alpha (Homo sapiens) (UniProt P16234); assay: Inhibition of human PDGFRalpha at 0.1 uM relative to control
[27] = system: Receptor-type tyrosine-protein kinase FLT3 (Homo sapiens), P36888 [D835Y]
[28] = molecular target: Dual specificity mitogen-activated protein kinase kinase 1 (Homo sapiens) (UniProt Q02750); assay: Inhibition of human MEK1 at 0.1 uM relative to control
[29] = molecular target: Tyrosine-protein kinase JAK2 (Homo sapiens) (UniProt O60674); assay: Inhibition of human JAK2 at 0.1 uM relative to control
Chain of Tyrosine-protein kinase JAK2 (Homo sapiens) (O60674 whole entry): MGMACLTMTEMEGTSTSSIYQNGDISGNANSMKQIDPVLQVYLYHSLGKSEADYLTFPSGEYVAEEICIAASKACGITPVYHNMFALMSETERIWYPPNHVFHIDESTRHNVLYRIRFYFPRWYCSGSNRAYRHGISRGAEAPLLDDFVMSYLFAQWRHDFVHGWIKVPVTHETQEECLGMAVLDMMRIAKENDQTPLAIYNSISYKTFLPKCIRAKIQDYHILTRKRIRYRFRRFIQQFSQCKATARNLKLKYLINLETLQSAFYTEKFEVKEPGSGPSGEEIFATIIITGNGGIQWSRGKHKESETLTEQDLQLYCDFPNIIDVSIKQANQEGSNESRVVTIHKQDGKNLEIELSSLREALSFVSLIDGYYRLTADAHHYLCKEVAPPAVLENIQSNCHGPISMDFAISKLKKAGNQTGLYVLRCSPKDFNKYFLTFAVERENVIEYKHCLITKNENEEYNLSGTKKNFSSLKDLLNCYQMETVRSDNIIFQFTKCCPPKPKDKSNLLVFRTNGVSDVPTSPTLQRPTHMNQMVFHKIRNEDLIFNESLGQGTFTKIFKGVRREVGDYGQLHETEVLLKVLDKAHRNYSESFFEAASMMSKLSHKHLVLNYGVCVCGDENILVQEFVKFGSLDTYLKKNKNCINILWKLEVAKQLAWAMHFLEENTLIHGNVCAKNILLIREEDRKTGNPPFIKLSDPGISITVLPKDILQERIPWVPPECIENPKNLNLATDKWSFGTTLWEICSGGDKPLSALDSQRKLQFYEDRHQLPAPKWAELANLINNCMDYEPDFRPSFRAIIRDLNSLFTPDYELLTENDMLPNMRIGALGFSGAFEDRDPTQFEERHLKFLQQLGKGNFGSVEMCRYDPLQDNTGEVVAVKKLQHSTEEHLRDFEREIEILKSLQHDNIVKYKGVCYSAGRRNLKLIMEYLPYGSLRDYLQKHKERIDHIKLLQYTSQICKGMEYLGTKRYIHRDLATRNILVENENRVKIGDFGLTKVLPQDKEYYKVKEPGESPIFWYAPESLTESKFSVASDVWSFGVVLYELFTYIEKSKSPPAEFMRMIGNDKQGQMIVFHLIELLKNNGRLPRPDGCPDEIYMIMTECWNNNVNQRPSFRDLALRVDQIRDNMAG

[30] = molecular target: Macrophage-stimulating protein receptor (Homo sapiens) (UniProt Q04912); assay: Inhibition of human RON at 0.1 uM relative to control
Chain of Macrophage-stimulating protein receptor (Homo sapiens) (Q04912 25-304 limits assumed): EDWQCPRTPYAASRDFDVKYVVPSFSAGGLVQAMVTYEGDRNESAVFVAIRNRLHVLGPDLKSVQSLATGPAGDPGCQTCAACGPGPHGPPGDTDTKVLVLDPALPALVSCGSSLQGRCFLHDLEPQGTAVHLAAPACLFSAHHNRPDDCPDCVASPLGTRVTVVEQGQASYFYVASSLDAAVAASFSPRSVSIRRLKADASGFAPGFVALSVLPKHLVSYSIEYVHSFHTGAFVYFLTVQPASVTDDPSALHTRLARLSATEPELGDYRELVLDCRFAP
Chain of Macrophage-stimulating protein receptor (Homo sapiens) (Q04912 310-1400 limits assumed): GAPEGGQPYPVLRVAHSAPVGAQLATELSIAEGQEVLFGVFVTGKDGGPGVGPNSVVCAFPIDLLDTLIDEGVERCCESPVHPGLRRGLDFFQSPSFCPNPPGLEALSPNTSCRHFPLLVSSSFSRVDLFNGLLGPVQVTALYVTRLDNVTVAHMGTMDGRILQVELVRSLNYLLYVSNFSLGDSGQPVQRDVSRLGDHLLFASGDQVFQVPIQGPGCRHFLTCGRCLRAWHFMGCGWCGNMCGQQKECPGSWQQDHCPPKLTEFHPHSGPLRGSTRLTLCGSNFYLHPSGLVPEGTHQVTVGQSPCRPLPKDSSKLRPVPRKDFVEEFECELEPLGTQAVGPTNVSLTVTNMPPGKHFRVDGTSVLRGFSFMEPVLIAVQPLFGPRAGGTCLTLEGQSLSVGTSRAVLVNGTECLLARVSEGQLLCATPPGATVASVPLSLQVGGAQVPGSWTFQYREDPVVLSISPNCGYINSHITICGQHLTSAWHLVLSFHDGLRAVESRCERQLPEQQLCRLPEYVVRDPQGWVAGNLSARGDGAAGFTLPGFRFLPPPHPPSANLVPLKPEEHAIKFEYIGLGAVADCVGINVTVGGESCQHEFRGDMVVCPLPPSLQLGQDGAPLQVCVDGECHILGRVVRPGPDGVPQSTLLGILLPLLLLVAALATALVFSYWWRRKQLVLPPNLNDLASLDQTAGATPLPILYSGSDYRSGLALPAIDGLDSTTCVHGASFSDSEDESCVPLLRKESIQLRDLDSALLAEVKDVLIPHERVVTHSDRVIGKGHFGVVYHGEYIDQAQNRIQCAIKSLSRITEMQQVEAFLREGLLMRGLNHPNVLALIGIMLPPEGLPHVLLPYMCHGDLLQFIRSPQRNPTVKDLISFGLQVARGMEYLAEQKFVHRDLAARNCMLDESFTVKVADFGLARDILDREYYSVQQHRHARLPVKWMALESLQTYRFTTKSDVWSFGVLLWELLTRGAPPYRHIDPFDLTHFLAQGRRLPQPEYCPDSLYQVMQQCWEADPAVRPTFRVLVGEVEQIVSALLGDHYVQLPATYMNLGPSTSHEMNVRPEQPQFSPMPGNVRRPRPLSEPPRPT

[31] = molecular target: Receptor-type tyrosine-protein kinase FLT3 (Homo sapiens, UniProt P36888, D835Y); assay: Inhibition of FLT3 ITD D835Y mutant (unknown origin) phosphorylation expressed in HEK293T cells preincubated for 1 hr followed by FLT3 ligand addition for 5 mins by Western blot analysis; type: cell-based, HEK-293T
[32] = molecular target: Receptor-type tyrosine-protein kinase FLT3 (Homo sapiens) (UniProt P36888); assay: Inhibition of human FLT3 at 0.1 uM relative to control
[33] = Plasma clearance in ICR mouse at 2 mg/kg, iv; type: ADME, organism-based
[34] = molecular target: Platelet-derived growth factor receptor beta (Homo sapiens) (UniProt P09619); assay: Inhibition of human PDGFRbeta at 0.1 uM relative to control
[35] = system: Mus musculus; assay: Antitumor activity against human MOLM13 cells xenografted in SCID mouse assessed as increase in survival at 10 mg/kg, po qd administered on day 1 to 5 relative to vehicle-treated control; type: functional, MOLM-13
[36] = molecular target: Ribosomal protein S6 kinase alpha-5 (Homo sapiens) (UniProt O75582); assay: Inhibition of human MSK1 at 0.1 uM relative to control
[37] = molecular target: Serine/threonine-protein kinase Nek1 (Homo sapiens) (UniProt Q96PY6); assay: Inhibition of human NEK1 at 0.1 uM relative to control
[38] = system: Receptor-type tyrosine-protein kinase FLT3 (Homo sapiens), P36888 [UNDEFINED MUTATION]; details: MOLM-13
Description: Inhibition of FLT3 ITD heterozygous mutant in human MOLM-13 cells assessed as cell growth inhibition after 72 hrs by MTS assay

[39] = molecular target: Tyrosine-protein kinase Lyn (Homo sapiens) (UniProt P07948); assay: Inhibition of human LYNB at 0.1 uM relative to control
[40] = molecular target: High affinity nerve growth factor receptor (Homo sapiens) (UniProt P04629); assay: Inhibition of human NTRK1 at 0.1 uM relative to control

CCc1cc(NC(=O)Nc2ccc(-c3cnc(Nc4cc(N5CCN(CC)CC5)nc(C)n4)s3)cc2)no1
inhibition [1]: -8%
GI50 [2]: 38 nM
inhibition [3]: -4%
AUC(0-inf) [4]: 1080 ng·h/mL
inhibition [5]: 87%
inhibition [6]: 21%
inhibition [7]: 7%
inhibition [8]: 0%
inhibition [9]: 21%
inhibition [10]: -7%
Cmax [11]: 168 ng/mL
inhibition [12]: 22%
Vd [13]: 8.2 L/kg
inhibition [14]: 46%
inhibition [15]: 80%
TGI [16]: Active
inhibition [17]: 14%
inhibition [18]: 44%
inhibition [19]: 78%
inhibition [20]: -7%
inhibition [21]: 46%
inhibition [22]: 45%
inhibition [23]: 15%
Vd [24]: 21 L/kg
inhibition [25]: 2%
inhibition [26]: 98%
GI50 [27]: 6 nM
inhibition [28]: 41%
inhibition [29]: -3%
inhibition [30]: -3%
IC50 [31]: 10 nM
inhibition [32]: 98%
clearance [33]: 82 mL/min/kg
inhibition [34]: 91%
Activity [35]: 45%
inhibition [36]: 0%
inhibition [37]: 23%
GI50 [38]: 2 nM
inhibition [39]: 88%
inhibition [40]: 82%
